Reference: US20150065416A1, “NOVEL DRUG COMBINATION” (FAB PHARMA SAS, priority 2013, published 2015)
Read-outs that look alike come from different tables or passages of the source.

Columns and labels:
A. baumannii isolates [1] = experiment: Checkerboard testing (compound (I)/antibacterial agent interaction, FIC index); assay type: cell-based, Acinetobacter baumannii; conditions: Acinetobacter baumannii, read-out: MIC
Experimental: Checkerboard interaction studies were performed using 5 isolates from each of the sub-groups and time kill studies were performed using 3 isolates from each sub-group.
Checkerboards (20 isolates, 5 per sub-group) were prepared so as to contain multiple concentrations of compound (I) with different additional antibacterial agents (amikacin, gentamicin, colistin, meropenem and tobramycin) as follows:
Serial two-fold dilutions of the antimicrobial agents alone or in combination in wells of 96 well microtiter plates were inoculated with the appropriate inoculum so that each well contained approximately 4-5×10^4 CFU/ml. Plates were incubated at 35° C. for 16-20 hours. Combination concentrations were tested between 0.25×MIC and 2×MIC. Growth and sterility controls were also included in each plate.
Synergy, indifference and antagonism were calculated based upon the use of the fractional inhibitory concentration (FIC) indices as described by Pillai, Moellering & Eliopoulos (2005) whereby:
Synergism=FIC index of ≦0.5 Indifference=FIC index >1 but ≦4 Additivity >0.5 to 1 Antagonism=FIC index of >4
Checkerboard studies were carried out as described in General Procedures using twenty different A. baumannii isolates with 5 per sub-group of: susceptible, amikacin-resistant, colistin-resistant and meropenem-resistant.

A. baumannii isolates [2] = experiment: Individual antimicrobial susceptibility testing (MIC, broth microdilution, CLSI); assay type: cell-based, Acinetobacter baumannii; conditions: for MIC50 / MIC90: Acinetobacter baumannii
Experimental: In the antimicrobial susceptibility testing 77 isolates of A. baumannii (from 2010) in the following sub-groups were tested: • 22 isolates generally susceptible to antimicrobial agents (“Sus”) • 20 carbapenem-resistant isolates (e.g. “MPM-R”) • 20 aminoglycoside-resistant isolates (e.g. “AMK-R”) • 15 colistin-resistant isolates. (e.g. “COL-R”)
Minimum inhibitory concentration (MIC) endpoints were determined by broth microdilution according to CLSI guidelines (CLSI, M7-A8 & M100-S22, 2012). Panels were prepared at IHMA using cation-adjusted Mueller-Hinton broth. Colonies were taken directly from a second-pass culture plate and prepared to a suspension equivalent of the 0.5 McFarland standard using normal saline.
Testing was carried out as described in the General Procedures to determine minimum inhibitory concentration (MIC) end points for compound (I), amikacin, colistin, gentamicin, meropenem and tobramycin, for 77 A. baumannii isolates. Under the “MIC (μg/ml)” heading, the first column (Range) indicates the MIC end points for the particular number (N) of isolates tested, the second column (50%) provides an estimate of the concentration that inhibits 50% (MIC50) of bacterial isolates tested, and the third column (90%) provides an estimate of the concentration that inhibits 90% of the bacterial isolates tested.

[3] = Amikacin-resistant isolates, N=20
[4] = Colistin-resistant isolates, N=15
[5] = Meropenem-resistant isolates, N=20

NC[C@H]1O[C@H](O[C@H]2[C@H](O)[C@@H](O[C@H]3O[C@H](CO)[C@@H](O)[C@H](N)[C@H]3O)[C@H](N)C[C@@H]2N)[C@H](N)C[C@@H]1O [tobramycin]
4 µg/mL: MIC (A. baumannii isolates [1]; A. baumannii 668239, amikacin-resistant) | MIC (A. baumannii isolates [1]; A. baumannii 671050, meropenem-resistant) | MIC50 (A. baumannii isolates [2]; [5])
> 1020 µg/mL: MIC (A. baumannii isolates [1]; A. baumannii 441142, colistin-resistant) | MIC (A. baumannii isolates [1]; A. baumannii 441160, colistin-resistant)
1 µg/mL: MIC (A. baumannii isolates [1]; A. baumannii 618649, meropenem-resistant) | MIC (A. baumannii isolates [1]; A. baumannii 625917, meropenem-resistant) | MIC (A. baumannii isolates [1]; A. baumannii 650216, meropenem-resistant) | MIC (A. baumannii isolates [1]; A. baumannii 661954, amikacin-resistant) | MIC (A. baumannii isolates [1]; A. baumannii 667848, meropenem-resistant) | MIC (A. baumannii isolates [1]; A. baumannii 668116, susceptible) | MIC (A. baumannii isolates [1]; A. baumannii 672190, susceptible) | MIC (A. baumannii isolates [1]; A. baumannii 674340, susceptible) | MIC50 (A. baumannii isolates [2]; Susceptible isolates, N=22)
0.12 to 2 µg/mL: MIC Range (A. baumannii isolates [2]; Susceptible isolates, N=22)
256 µg/mL: MIC (A. baumannii isolates [1]; A. baumannii 517303, colistin-resistant)
> 32 µg/mL: MIC90 (A. baumannii isolates [2]; All isolates, N=77) | MIC50 (A. baumannii isolates [2]; [3]) | MIC90 (A. baumannii isolates [2]; [3]) | MIC90 (A. baumannii isolates [2]; [4]) | MIC90 (A. baumannii isolates [2]; [5])
2 µg/mL: MIC (A. baumannii isolates [1]; A. baumannii 463996, colistin-resistant) | MIC (A. baumannii isolates [1]; A. baumannii 628760, susceptible) | MIC (A. baumannii isolates [1]; A. baumannii 637723, amikacin-resistant) | MIC (A. baumannii isolates [1]; A. baumannii 638115, amikacin-resistant) | MIC (A. baumannii isolates [1]; A. baumannii 655932, amikacin-resistant) | MIC (A. baumannii isolates [1]; A. baumannii 670348, susceptible) | MIC50 (A. baumannii isolates [2]; All isolates, N=77) | MIC90 (A. baumannii isolates [2]; Susceptible isolates, N=22)
64 µg/mL: MIC (A. baumannii isolates [1]; A. baumannii 466936, colistin-resistant)
32 µg/mL: MIC50 (A. baumannii isolates [2]; [4])
